In patent US20250367308A1, “LIGAND-DRUG CONJUGATE OF CAMPTOTHECIN ANALOGS, INTERMEDIATES, PREPARATION METHOD THEREFOR, PHARMACEUTICAL COMPOSITION AND APPLICATION THEREOF” (SHANGHAI MICURX PHARMACEUTICAL CO.,LTD., priority 2022, published 2025):

system: Human lung adenocarcinoma cell line A549; assay: In vitro cytotoxicity test of camptothecin payloads (CellTiter-Glo); assay type: cell-based; conditions: not given
Method: Human lung adenocarcinoma cell line A549 was used to evaluate the cytotoxicity of small molecule fragment of the present invention. A549 cells were seeded to a 96-well plate at 2000 cells per well.

Question: For `CC[C@@]1(O)C(=O)OCc2c1cc1n(c2=O)Cc2c-1nc1cc(F)c(C)cc1c2CN1CCCC(O)C1` (stereo partly drawn) [Example 17, (4S)-4-ethyl-8-fluoro-4-hydroxy-11-((3-hydroxypiperidin-1-yl)methyl)-9-methyl-1H-pyrano[3′,4′:6,7] indolizino[1,2-b]quinoline-3,14(4H,12H)-dione], which “relative A549 cytotoxic potency in words” value is on record?
Answer: The value was “most potent compound”.

same assay, conditions: Homo sapiens, A549, 72 h, read-out: A549 Cytotoxicity IC50 (nM)

Question: Which IC50 does the source give for `CC[C@@]1(O)C(=O)OCc2c1cc1n(c2=O)Cc2c-1nc1cc(F)c(C)cc1c2CN1CCC([C@@H](C)O)CC1` [Example 15, (S)-4-ethyl-8-fluoro-4-hydroxy-11-((4-((R)-1-hydroxyethyl)piperidin-1-yl)methyl)-9-methyl-1H-pyrano[3′,4′:6,7] indolizino[1,2-b]quinoline-3,14(4H,12H)-dione] here?
Answer: Its IC50 is 17.6 nM.

Question: Which IC50 does the source give for `CC[C@@]1(O)C(=O)OCc2c1cc1n(c2=O)Cc2c-1nc1cc(F)c(C)cc1c2CN1CCC(O)CC1` [Example 16, (S)-4-ethyl-8-fluoro-4-hydroxy-11-((4-hydroxypiperidin-1-yl)methyl)-9-methyl-1H-pyrano[3′,4′:6,7] indolizino[1,2-b]quinoline-3,14(4H,12H)-dione] here?
Answer: The IC50 was 81 nM.

Question: How did the IC50 turn out when `CC[C@@]1(O)C(=O)OCc2c1cc1n(c2=O)Cc2c-1nc1cc(F)c(C)cc1c2CN1CCCC(O)C1` (stereo partly drawn) [Example 17, (4S)-4-ethyl-8-fluoro-4-hydroxy-11-((3-hydroxypiperidin-1-yl)methyl)-9-methyl-1H-pyrano[3′,4′:6,7] indolizino[1,2-b]quinoline-3,14(4H,12H)-dione] was run?
Answer: The IC50 was 38 nM.

Question: How did the IC50 turn out when `CC[C@@]1(O)C(=O)OCc2c1cc1n(c2=O)Cc2c-1nc1cc(F)c(C)cc1c2CN1CCC[C@@H](O)C1` [Example 18, (S)-4-ethyl-8-fluoro-4-hydroxy-11-(((R)-3-hydroxypiperidin-1-yl)methyl)-9-methyl-1H-pyrano[3′,4′:6,7] indolizino[1,2-b]quinoline-3,14(4H,12H)-dione] was run?
Answer: Its IC50 is 19.7 nM.

Question: `CC[C@@]1(O)C(=O)OCc2c1cc1n(c2=O)Cc2c-1nc1cc(F)c(C)cc1c2CN1CCC[C@H](O)C1` [Example 19, (S)-4-ethyl-8-fluoro-4-hydroxy-11-(((S)-3-hydroxypiperidin-1-yl)methyl)-9-methyl-1H-pyrano[3′,4′:6,7] indolizino[1,2-b]quinoline-3,14(4H,12H)-dione] was tested. Which IC50 did it give?
Answer: The IC50 was 15.7 nM.

Question: `CC[C@@]1(O)C(=O)OCc2c1cc1n(c2=O)Cc2c-1nc1cc(F)c(C)cc1c2CN1C2CCC1(CO)CC2` [Example 20, (S)-4-ethyl-8-fluoro-4-hydroxy-11-((1-(hydroxymethyl)-7-azabicyclo[2.2.1]heptan-7-yl)methyl)-9-methyl-1H-pyrano[3′,4′:6,7] indolizino[1,2-b]quinoline-3,14(4H,12H)-dione] was tested. Which IC50 did it give?
Answer: Its IC50 is 24.1 nM.

Question: `CC[C@@]1(O)C(=O)OCc2c1cc1n(c2=O)Cc2c-1nc1cc(F)c(C)cc1c2CN1CCCC1(C)CO` (stereo partly drawn) [Example 21, (4S)-4-ethyl-8-fluoro-4-hydroxy-11-((2-(hydroxymethyl)-2-methylpyrrolidin-1-yl)methyl)-9-methyl-1H-pyrano[3′,4′:6,7] indolizino[1,2-b]quinoline-3,14(4H,12H)-dione] was tested. Which IC50 did it give?
Answer: The IC50 was 55 nM.

Question: With `CC[C@@]1(O)C(=O)OCc2c1cc1n(c2=O)Cc2c-1nc1cc(F)c(C)cc1c2CN1CC(C)(C)C[C@@H]1CO` [Example 22, (S)-4-ethyl-8-fluoro-4-hydroxy-11-(((R)-2-(hydroxymethyl)-4,4-dimethylpyrrolidin-1-yl)methyl)-9-methyl-1H-pyrano[3′,4′:6,7] indolizino[1,2-b]quinoline-3,14(4H,12H)-dione] as the molecule, how does the IC50 read?
Answer: The IC50 was 14.3 nM.

Question: For `CC[C@@]1(O)C(=O)OCc2c1cc1n(c2=O)Cc2c-1nc1cc(F)c(C)cc1c2CN1CC2C(C1CO)C2(C)C` (stereo partly drawn) [Example 23, (4S)-4-ethyl-8-fluoro-4-hydroxy-11-((2-(hydroxymethyl)-6,6-dimethyl-3-azabicyclo[3.1.0]hexan-3-yl)methyl)-9-methyl-1H-pyrano[3′,4′:6,7] indolizino[1,2-b]quinoline-3,14(4H,12H)-dione], which IC50 is on record?
Answer: Its IC50 is 49 nM.

Question: How did the IC50 turn out when `CC[C@@]1(O)C(=O)OCc2c1cc1n(c2=O)Cc2c-1nc1cc(F)c(C)cc1c2CN1CCC(C)(CO)C1` (stereo partly drawn) [Example 24, (4S)-4-ethyl-8-fluoro-4-hydroxy-11-((3-(hydroxymethyl)-3-methylpyrrolidin-1-yl)methyl)-9-methyl-1H-pyrano[3′,4′:6,7] indolizino[1,2-b]quinoline-3,14(4H,12H)-dione] was run?
Answer: The IC50 was 43 nM.

Question: Which IC50 does the source give for `CC[C@@]1(O)C(=O)OCc2c1cc1n(c2=O)Cc2c-1nc1cc(F)c(C)cc1c2CN1CCC(CCO)CC1` [Example 27, (S)-4-ethyl-8-fluoro-4-hydroxy-11-((4-(2-hydroxyethyl)piperidin-1-yl)methyl)-9-methyl-1H-pyrano[3′,4′:6,7] indolizino[1,2-b]quinoline-3,14(4H,12H)-dione] here?
Answer: The IC50 was 16.8 nM.

Question: With `CC[C@@]1(O)C(=O)OCc2c1cc1n(c2=O)Cc2c-1nc1cc(F)c(C)cc1c2CN1CCC(C(O)C(C)C)CC1` (stereo partly drawn) [Example 28, (4S)-4-ethyl-8-fluoro-4-hydroxy-11-((4-(1-hydroxy-2-methylpropyl)piperidin-1-yl)methyl)-9-methyl-1H-pyrano[3′,4′:6,7] indolizino[1,2-b]quinoline-3,14(4H,12H)-dione] as the molecule, how does the IC50 read?
Answer: Its IC50 is 74.2 nM.

Question: `CC[C@@]1(O)C(=O)OCc2c1cc1n(c2=O)Cc2c-1nc1cc(F)c(C)cc1c2CN1CCC(C(O)C(F)(F)F)CC1` (stereo partly drawn) [Example 29, (4S)-4-ethyl-8-fluoro-4-hydroxy-9-methyl-11-((4-(2,2,2-trifluoro-1-hydroxyethyl)piperidin-1-yl)methyl)-1H-pyrano[3′,4′:6,7] indolizino[1,2-b]quinoline-3,14(4H,12H)-dione] was tested. Which IC50 did it give?
Answer: The IC50 was 29.8 nM.

Question: How did the IC50 turn out when `CC[C@@]1(O)C(=O)OCc2c1cc1n(c2=O)Cc2c-1nc1cc(F)c(C)cc1c2CN1CCC(C2(O)CCC2)CC1` [Example 30, (S)-4-ethyl-8-fluoro-4-hydroxy-11-((4-(1-hydroxycyclobutyl)piperidin-1-yl)methyl)-9-methyl-1H-pyrano[3′,4′:6,7] indolizino[1,2-b]quinoline-3,14(4H,12H)-dione] was run?
Answer: Its IC50 is 28.6 nM.

Question: `CC[C@@]1(O)C(=O)OCc2c1cc1n(c2=O)Cc2c-1nc1cc(F)c(C)cc1c2CN1CCC2(CC1)CC(O)C2` [Example 31, (S)-4-ethyl-8-fluoro-4-hydroxy-11-((2-hydroxy-7-azaspiro[3.5]nonan-7-yl)methyl)-9-methyl-1H-pyrano[3′,4′:6,7] indolizino[1,2-b]quinoline-3,14(4H,12H)-dione] was tested. Which IC50 did it give?
Answer: Its IC50 is 12.5 nM.

Question: Which IC50 does the source give for `CC[C@@]1(O)C(=O)OCc2c1cc1n(c2=O)Cc2c-1nc1cc(F)c(C)cc1c2CN1CCC2(CCC2O)CC1` (stereo partly drawn) [Example 32, (4S)-4-ethyl-8-fluoro-4-hydroxy-11-((1-hydroxy-7-azaspiro[3.5]nonan-7-yl)methyl)-9-methyl-1H-pyrano[3′,4′:6,7] indolizino[1,2-b]quinoline-3,14(4H,12H)-dione] here?
Answer: Its IC50 is 12.6 nM.

Question: For `CC[C@@]1(O)C(=O)OCc2c1cc1n(c2=O)Cc2c-1nc1cc(F)c(C)cc1c2CN1C[C@H]2CC[C@@H](C1)C2O` (stereo partly drawn) [Example 33, (4S)-4-ethyl-8-fluoro-4-hydroxy-11-(((1R,5S)-8-hydroxy-3-azabicyclo[3.2.1]octan-3-yl)methyl)-9-methyl-1H-pyrano[3′,4′:6,7] indolizino[1,2-b]quinoline-3,14(4H,12H)-dione], which IC50 is on record?
Answer: The IC50 was 12.9 nM.

Question: Which IC50 does the source give for `CC[C@@]1(O)C(=O)OCc2c1cc1n(c2=O)Cc2c-1nc1cc3c(cc1c2CN1CCC([C@@H](C)O)CC1)OCCO3` [Example 36] here?
Answer: The IC50 was 38.4 nM.

Question: `CC[C@@]1(O)C(=O)OCc2c1cc1n(c2=O)Cc2c-1nc1cc(F)c(F)cc1c2CN1CCC([C@@H](C)O)CC1` [Example 37, (S)-4-ethyl-8,9-difluoro-4-hydroxy-11-((4-((R)-1-hydroxyethyl)piperidin-1-yl)methyl)-1,12-dihydro-14H-pyrano[3′,4′:6,7] indolizino[1,2-b]quinoline-3,14(4H)-dione] was tested. Which IC50 did it give?
Answer: Its IC50 is 29 nM.

Question: `CC[C@@]1(O)C(=O)OCc2c1cc1n(c2=O)Cc2c-1nc1ccc(O)cc1c2CN1CCC([C@@H](C)O)CC1` [Example 38, (S)-4-ethyl-4,9-dihydroxy-11-((4-((R)-1-hydroxyethyl)piperidin-1-yl)methyl)-1,12-dihydro-14H-pyrano[3′,4′:6,7] indolizino[1,2-b]quinoline-3,14(4H)-dione] was tested. Which IC50 did it give?
Answer: The IC50 was 1250 nM.

Question: For `CC[C@@]1(O)C(=O)OCc2c1cc1n(c2=O)Cc2c-1nc1cc(F)c(C)cc1c2C(C)N1CCC([C@@H](C)O)CC1` (stereo partly drawn) [Example 39, (4S)-4-ethyl-8-fluoro-4-hydroxy-11-(1-(4-((R)-1-hydroxyethyl)piperidin-1-yl)ethyl)-9-methyl-1,12-dihydro-14H-pyrano[3′,4′:6,7] indolizino[1,2-b]quinoline-3,14(4H)-dione], which IC50 is on record?
Answer: Its IC50 is 128 nM.

Question: `CC[C@@]1(O)C(=O)OCc2c1cc1n(c2=O)Cc2c-1nc1ccc(OCC(=O)N3CCCCC3)cc1c2CN1CCC([C@@H](C)O)CC1` [Example 40, (S)-4-ethyl-4-hydroxy-11-((4-((R)-1-hydroxyethyl)piperidin-1-yl)methyl)-9-(2-oxo-2-(piperidin-1-yl)ethoxy)-1,12-dihydro-14H-pyrano[3′,4′:6,7] indolizino[1,2-b]quinoline-3,14(4H)-dione] was tested. Which IC50 did it give?
Answer: Its IC50 is 1290 nM.

Question: For `CC[C@@]1(O)C(=O)OCc2c1cc1n(c2=O)Cc2c-1nc1cc(F)c(OC)cc1c2CN1CCC([C@@H](C)O)CC1` [Example 41, (S)-4-ethyl-8-fluoro-4-hydroxy-11-((4-((R)-1-hydroxyethyl)piperidin-1-yl)methyl)-9-methoxy-1,12-dihydro-14H-pyrano[3′,4′:6,7] indolizino[1,2-b]quinoline-3,14(4H)-dione], which IC50 is on record?
Answer: The IC50 was 31 nM.

Question: `CC[C@@]1(O)C(=O)OCc2c1cc1n(c2=O)Cc2c-1nc1cc3c(cc1c2CN1CCC2(CC1)CC(O)C2)OCCO3` [Example 44] was tested. Which IC50 did it give?
Answer: The IC50 was 30 nM.

Question: With `CC[C@@]1(O)C(=O)OCc2c1cc1n(c2=O)Cc2c-1nc1cc3c(cc1c2CN1C[C@@H]2CCC[C@@H]2[C@H]1CO)OCCO3` [Example 45] as the molecule, how does the IC50 read?
Answer: Its IC50 is 53 nM.

Question: For `CC[C@@]1(O)C(=O)OCc2c1cc1n(c2=O)Cc2c-1nc1cc(F)c(C)cc1c2CN1C[C@H]2C[C@@H](C1)C2O` (stereo partly drawn) [Example 47, (4S)-4-ethyl-8-fluoro-4-hydroxy-11-(((1R,5S)-6-hydroxy-3-azabicyclo[3.1.1]heptan-3-yl)methyl)-9-methyl-1,12-dihydro-14H-pyrano[3',4':6,7] indolizino[1,2-b]quinoline-3,14(4H)-dione], which IC50 is on record?
Answer: The IC50 was 28 nM.

same assay, conditions: human, 3 days

Question: For `CC[C@@]1(O)C(=O)OCc2c1cc1n(c2=O)Cc2c-1nc1cc(F)c(C)cc1c2CN1CCC[C@H](O)C1` [Example 19, (S)-4-ethyl-8-fluoro-4-hydroxy-11-(((S)-3-hydroxypiperidin-1-yl)methyl)-9-methyl-1H-pyrano[3′,4′:6,7] indolizino[1,2-b]quinoline-3,14(4H,12H)-dione], which “relative A549 cytotoxic potency in words” value is on record?
Answer: Its value is “more potent than Example 17”.
